# Calls of active or inactive are those of the source.
# Assays:
# Bcl-2-related protein A1 [1] = target: T1, Bcl-2-related protein A1 (Mus musculus, UniProt Q07440); assay: Bfl-1 binding inhibitors, SAR follow-up, biochemical, fluorescence polarization (AID 1070)
# T1 sequence (Q07440 whole entry): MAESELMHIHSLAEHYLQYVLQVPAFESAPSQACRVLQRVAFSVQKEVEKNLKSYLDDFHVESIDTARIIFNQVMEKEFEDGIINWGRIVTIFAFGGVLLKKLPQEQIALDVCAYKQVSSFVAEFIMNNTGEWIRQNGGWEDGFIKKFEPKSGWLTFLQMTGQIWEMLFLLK
# [2] = target: Glyceraldehyde-3-phosphate dehydrogenase (Homo sapiens, UniProt P04406)
# Bcl-2-related protein A1 [3] = target: T1, Bcl-2-related protein A1; assay: Bfl-1 inhibitors blocking BH3 peptide binding, confirmation, biochemical, TR-FRET, mouse Bfl-1 (AID 621);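 note: TR-FRET binding of GST-Bfl-1 to FITC-labelled Bid peptide via terbium antibody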
# [4] = target: Sphingosine 1-phosphate receptor 2 (Homo sapiens, UniProt O95136); assay: Dose Response Cell Based Assay for Agonists of the S1P2 Receptor of Purchased Analogues. [Related pubchem assays: 729, 843, 854, 736 ]; format: functional
# HEK293 [5] = assay: cells; conditions: Homo sapiens
# [6] = A High Throughput Confirmatory Assay used to Identify Novel Compounds that Inhibit Mycobacterium Tuberculosis in the absence of Glycerol.; format: functional
# HEK293 [7] = assay: cells; conditions: Homo sapiens; remark: listed apart in the source
# [8] = microbe, parasite or virus in culture; format: functional; conditions: Mycobacterium tuberculosis
# HeLa = assay: Cytotoxicity counterscreen assay for transcriptional activators of heat shock protein 70 (Hsp70). [Related pubchem assays: 1203, 1252 ]; format: functional; conditions: Homo sapiens;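 note: cells exposed to compound for 16 hours before readout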
# [9] = Shn3 3'UTR reporter inhibitors, dose response, cell-based, Clone20 osteoblasts, firefly luciferase, cherry-picked (AID 624132); format: functional;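 note: firefly luciferase luminescence from reporter carrying the Shn3 3'UTR in osteoblasts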
# [10] = target: T2, Microphthalmia-associated transcription factor (Homo sapiens, UniProt O75030); assay: TRPM1 promoter luciferase signal decrease, dose response, MITF inhibitor project, cell-based, SK-MEL-5, cherry-picked, set 3 (AID 493073); format: functional
# T2 sequence (O75030 whole entry): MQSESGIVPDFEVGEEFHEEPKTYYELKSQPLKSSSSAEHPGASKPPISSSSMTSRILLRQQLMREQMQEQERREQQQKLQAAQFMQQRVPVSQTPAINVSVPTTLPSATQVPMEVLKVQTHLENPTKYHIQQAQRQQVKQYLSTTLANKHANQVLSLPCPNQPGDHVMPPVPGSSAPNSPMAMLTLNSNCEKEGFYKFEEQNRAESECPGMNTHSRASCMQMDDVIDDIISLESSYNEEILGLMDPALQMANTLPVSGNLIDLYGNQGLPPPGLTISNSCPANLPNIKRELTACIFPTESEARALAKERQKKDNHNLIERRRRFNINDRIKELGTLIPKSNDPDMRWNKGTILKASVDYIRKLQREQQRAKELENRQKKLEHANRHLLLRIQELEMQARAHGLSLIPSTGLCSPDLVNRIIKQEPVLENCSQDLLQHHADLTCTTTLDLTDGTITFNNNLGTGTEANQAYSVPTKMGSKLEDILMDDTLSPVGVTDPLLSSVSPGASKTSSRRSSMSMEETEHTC
# [11] = control 3'UTR Renilla luciferase suppression, dose response, counter-screen for Shn3 inhibitor project, cell-based, Clone20-Shn3RL, cherry-picked (AID 624133); format: functional
# Paired box protein Pax-8 = Paired box protein Pax-8 (Homo sapiens, UniProt Q06710); assay: inhibitors of PAX8-driven TPO luciferase reporter, dose response, RMG-I cells, cherry-pick (AID 687027); format: functional, cell-based;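 note: luciferase reporter driven by Pax8 target thyroperoxidase promoter measured by SteadyGlo luminescence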
# [12] = HepG2 cell cytotoxicity, dose response, cytotoxicity control for Shn3 inhibitor project, CellTiter-Glo, cherry-picked (AID 624134); format: functional, cell-based
# Bcl-2-like protein 10 = Bcl-2-like protein 10 (Homo sapiens, UniProt Q9HD36); assay: Biochemical TR3 FP assay of Bcl-B inhibitor potency, EC50 (AID 1243); format: functional
# [13] = target: Inward rectifier potassium channel 2 (Mus musculus, UniProt P35561); assay: Manual electrophysiological patch clamp assay for SAR compounds that inhibit/block inward-rectifying potassium ion channel Kir2.1. [Related pubchem assays: 1843 (Summary assay for Kir2.1 inhibitor assays.), 1672 (Primary HTS of 305616 compounds where 2592 were identified as active.)]; format: functional
# [14] = target: Eukaryotic translation initiation factor 4E (Mus musculus, UniProt P63073); assay: eIF4E–eIF4G protein interaction inhibitors, dose response, biochemical, TR-FRET (AID 855); format: functional;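 note: potency for disrupting eIF4E binding to eIF4GI seen as loss of FRET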
# [15] = target: Protein-tyrosine kinase 2-beta (Homo sapiens, UniProt Q14289);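 note: potency of inhibitors of PYK2 kinase phosphorylation of poly-GT substrate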
# [16] = target: Mothers against decapentaplegic homolog 3 (Homo sapiens, UniProt P84022); assay: SMAD3 transcription factor inhibitors, dose response (AID 715); format: functional
# [17] = target: T3, Aryl hydrocarbon receptor (Homo sapiens, UniProt P35869); assay: Luminescence-based cell-based high throughput dose response assay for activators of the Aryl Hydrocarbon Receptor (AHR). [Related pubchem assays: 2796 (Primary screen (AHR activators in singlicate)), 2845 (Confirmation screen (AHR activators in triplicate)), 434939 (Counterscreen (PXR activators in triplicate)), 2804 (Summary (AHR activators))]; format: ADME
# T3 sequence (P35869 whole entry): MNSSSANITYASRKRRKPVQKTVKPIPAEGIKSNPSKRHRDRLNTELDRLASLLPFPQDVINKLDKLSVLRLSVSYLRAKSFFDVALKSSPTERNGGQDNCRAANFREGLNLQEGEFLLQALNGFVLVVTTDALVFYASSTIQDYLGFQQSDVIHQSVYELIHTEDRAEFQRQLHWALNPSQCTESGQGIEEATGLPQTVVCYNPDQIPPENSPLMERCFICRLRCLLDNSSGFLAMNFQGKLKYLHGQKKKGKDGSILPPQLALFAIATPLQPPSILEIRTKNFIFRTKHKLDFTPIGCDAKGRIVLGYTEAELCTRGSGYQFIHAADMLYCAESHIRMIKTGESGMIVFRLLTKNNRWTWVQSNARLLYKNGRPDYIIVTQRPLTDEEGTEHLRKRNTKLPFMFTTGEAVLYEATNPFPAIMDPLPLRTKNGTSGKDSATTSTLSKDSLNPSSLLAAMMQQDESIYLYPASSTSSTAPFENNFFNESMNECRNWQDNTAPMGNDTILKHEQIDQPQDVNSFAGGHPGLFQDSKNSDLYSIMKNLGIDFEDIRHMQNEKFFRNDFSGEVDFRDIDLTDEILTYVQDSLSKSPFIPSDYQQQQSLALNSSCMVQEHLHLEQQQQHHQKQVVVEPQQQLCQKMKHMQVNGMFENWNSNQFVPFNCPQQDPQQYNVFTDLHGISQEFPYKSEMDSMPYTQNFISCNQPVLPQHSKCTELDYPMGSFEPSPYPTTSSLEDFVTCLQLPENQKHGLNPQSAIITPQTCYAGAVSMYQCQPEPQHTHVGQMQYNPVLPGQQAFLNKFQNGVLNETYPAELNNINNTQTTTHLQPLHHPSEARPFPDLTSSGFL
# Mucolipin-3 = Mucolipin-3 (Homo sapiens, UniProt Q8TDD5); assay: Dose response cell-based high-throughput screening assay for agonists of the transient receptor potential channel ML3 (TRPML3). [Related pubchem assays: 1526, 1424, 1448 ]; format: functional
# Ion channel NompC = Ion channel NompC (Danio rerio, UniProt Q7T1G6); assay: Fluorescence counterscreen assay for TRPML3 agonists: dose response cell-based high-throughput screening assay to identify agonists of the transient receptor potential channel N1 (TRPN1). [Related pubchem assays: 1526, 1424, 1448 ]; format: functional
# [18] = Luminescence Cell-Based Dose Response to Identify Activators of Luciferase Translation or Activity in H4-C Neuroglioblastoma Cells. [Related pubchem assays: 1829 (Project Summary), 1814 (Primary HTS)]; format: functional
# [19] = Luminescence Cell-Based Dose Confirmation to Identify Activators of 5'UTR Stem-Loop Driven Alpha-Synuclein mRNA Translation in H4 Neuroglioblastoma Cells. [Related pubchem assays: 1829 (Project Summary), 1814 (Primary HTS)]; format: functional
# [20] = Luminescence Cell-Based Dose Response to Identify Activators of 5'UTR Stem-Loop Driven Prion Protein mRNA Translation in H4-C Neuroglioblastoma Cells. [Related pubchem assays: 1829 (Project Summary), 1814 (Primary HTS)]; format: functional
# [21] = Luminescence Cell-Based Dose Response HTS to Identify Activators of Luciferase Translation or Activity in H4 […] Cells. [Related pubchem assays: 1829 (Project Summary), 1814 (Primary HTS)]; format: functional
# Vero = assay: cells; format: functional; conditions: Chlorocebus sabaeus
# [22] = Luminescence-based dose response cell-based high throughput screening assay for cytotoxic compounds using the IEC-6 intestinal epithelial cell line. [Related pubchem assays: 1858 (Summary AID.), 1825 (Counterscreen.), 1907 (Confirmation screen.)]; format: functional
# [23] = cytotoxicity toward DRD oncogenic fibroblasts, dose response, cell-based, non-viral oncogenic, luminescence (AID 1934); format: functional; conditions: Homo sapiens
# BJ [24] = assay: cytotoxicity toward BJ-TERT-LT-ST fibroblasts, dose response, cell-based, RAS-independent, luminescence (AID 1935); format: functional; conditions: Homo sapiens;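 note: BJ fibroblasts immortalized with TERT plus LT and ST oncogenes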
# BJ [25] = assay: cytotoxicity toward Ras-transformed BJeLR fibroblasts, dose response, cell-based, alamar blue fluorescence, cherrypicked samples (AID 2631); format: functional; conditions: Homo sapiens;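 note: confirmatory dose-response assay in RAS-dependent BJ fibroblasts engineered with TERT, LT and ST, with cytotoxicity read by fluorescence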
# BJ [26] = assay: cytotoxicity toward BJ-TERT fibroblasts, dose response, cell-based, RAS-independent, luminescence (AID 1933); format: functional; conditions: Homo sapiens
# BJ [27] = assay: cells; format: functional, cell-based; conditions: Homo sapiens
# [28] = target: T4, Zinc finger protein mex-5 (Caenorhabditis elegans, UniProt Q9XUB2); assay: MEX-5/TCR-2 RNA interaction inhibitors, dose response, biochemical, C. elegans, fluorescence polarization (AID 1960)
# T4 sequence (Q9XUB2 whole entry): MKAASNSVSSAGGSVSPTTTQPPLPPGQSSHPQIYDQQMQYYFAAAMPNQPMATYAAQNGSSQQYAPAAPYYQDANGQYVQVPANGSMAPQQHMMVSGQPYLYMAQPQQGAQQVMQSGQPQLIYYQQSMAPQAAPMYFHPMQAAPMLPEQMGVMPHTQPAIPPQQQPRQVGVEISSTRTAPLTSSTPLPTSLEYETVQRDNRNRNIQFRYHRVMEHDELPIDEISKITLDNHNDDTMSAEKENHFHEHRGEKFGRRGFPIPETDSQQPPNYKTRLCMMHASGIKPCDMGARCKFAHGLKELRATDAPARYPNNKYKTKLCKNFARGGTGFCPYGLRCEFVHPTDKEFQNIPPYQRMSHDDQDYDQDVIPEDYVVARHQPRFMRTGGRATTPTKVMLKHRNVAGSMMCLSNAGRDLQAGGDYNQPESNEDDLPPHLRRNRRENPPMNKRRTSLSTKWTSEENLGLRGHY
# [29] = target: T5, RNA-binding protein pos-1 (Caenorhabditis elegans, UniProt G5EF15); assay: inhibitors of POS-1/mex-3 RNA binding, dose response, biochemical, fluorescence polarization (AID 1964);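 note: purified POS-1 fused to maltose binding protein made in E. coli; potency of compounds blocking POS-1 binding to fluorescent RNA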
# T5 sequence (G5EF15 whole entry): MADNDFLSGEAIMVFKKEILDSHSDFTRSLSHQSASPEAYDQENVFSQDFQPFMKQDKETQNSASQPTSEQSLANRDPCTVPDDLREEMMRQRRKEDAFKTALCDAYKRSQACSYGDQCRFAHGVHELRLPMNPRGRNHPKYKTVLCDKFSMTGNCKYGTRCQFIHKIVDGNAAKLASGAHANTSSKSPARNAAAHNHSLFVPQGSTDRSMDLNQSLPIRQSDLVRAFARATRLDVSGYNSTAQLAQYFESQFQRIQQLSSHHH
# 14-3-3 protein gamma = 14-3-3 protein gamma (Homo sapiens, UniProt P61981); assay: modulators of 14-3-3 gamma client binding – dose response (AID 711); format: functional
# [30] = inhibitors of Bluetongue virus cytopathic effect, confirmation, arbovirus, BSR cells (AID 1250); format: functional;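 note: protection from viral cytopathic effect measured as cell viability by ATP luminescence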
# Chain of Sphingosine 1-phosphate receptor 2 (O95136 whole entry): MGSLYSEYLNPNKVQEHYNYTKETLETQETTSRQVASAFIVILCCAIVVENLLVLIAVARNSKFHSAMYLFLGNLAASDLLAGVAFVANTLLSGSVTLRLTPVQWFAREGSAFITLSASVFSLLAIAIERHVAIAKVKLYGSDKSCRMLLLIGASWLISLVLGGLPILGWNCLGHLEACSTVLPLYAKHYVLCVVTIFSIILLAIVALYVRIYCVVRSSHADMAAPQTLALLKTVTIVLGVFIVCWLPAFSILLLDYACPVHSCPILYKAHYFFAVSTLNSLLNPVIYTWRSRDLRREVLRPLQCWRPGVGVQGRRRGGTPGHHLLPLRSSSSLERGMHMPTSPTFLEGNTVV
# Chain of Ion channel NompC (Q7T1G6 whole entry): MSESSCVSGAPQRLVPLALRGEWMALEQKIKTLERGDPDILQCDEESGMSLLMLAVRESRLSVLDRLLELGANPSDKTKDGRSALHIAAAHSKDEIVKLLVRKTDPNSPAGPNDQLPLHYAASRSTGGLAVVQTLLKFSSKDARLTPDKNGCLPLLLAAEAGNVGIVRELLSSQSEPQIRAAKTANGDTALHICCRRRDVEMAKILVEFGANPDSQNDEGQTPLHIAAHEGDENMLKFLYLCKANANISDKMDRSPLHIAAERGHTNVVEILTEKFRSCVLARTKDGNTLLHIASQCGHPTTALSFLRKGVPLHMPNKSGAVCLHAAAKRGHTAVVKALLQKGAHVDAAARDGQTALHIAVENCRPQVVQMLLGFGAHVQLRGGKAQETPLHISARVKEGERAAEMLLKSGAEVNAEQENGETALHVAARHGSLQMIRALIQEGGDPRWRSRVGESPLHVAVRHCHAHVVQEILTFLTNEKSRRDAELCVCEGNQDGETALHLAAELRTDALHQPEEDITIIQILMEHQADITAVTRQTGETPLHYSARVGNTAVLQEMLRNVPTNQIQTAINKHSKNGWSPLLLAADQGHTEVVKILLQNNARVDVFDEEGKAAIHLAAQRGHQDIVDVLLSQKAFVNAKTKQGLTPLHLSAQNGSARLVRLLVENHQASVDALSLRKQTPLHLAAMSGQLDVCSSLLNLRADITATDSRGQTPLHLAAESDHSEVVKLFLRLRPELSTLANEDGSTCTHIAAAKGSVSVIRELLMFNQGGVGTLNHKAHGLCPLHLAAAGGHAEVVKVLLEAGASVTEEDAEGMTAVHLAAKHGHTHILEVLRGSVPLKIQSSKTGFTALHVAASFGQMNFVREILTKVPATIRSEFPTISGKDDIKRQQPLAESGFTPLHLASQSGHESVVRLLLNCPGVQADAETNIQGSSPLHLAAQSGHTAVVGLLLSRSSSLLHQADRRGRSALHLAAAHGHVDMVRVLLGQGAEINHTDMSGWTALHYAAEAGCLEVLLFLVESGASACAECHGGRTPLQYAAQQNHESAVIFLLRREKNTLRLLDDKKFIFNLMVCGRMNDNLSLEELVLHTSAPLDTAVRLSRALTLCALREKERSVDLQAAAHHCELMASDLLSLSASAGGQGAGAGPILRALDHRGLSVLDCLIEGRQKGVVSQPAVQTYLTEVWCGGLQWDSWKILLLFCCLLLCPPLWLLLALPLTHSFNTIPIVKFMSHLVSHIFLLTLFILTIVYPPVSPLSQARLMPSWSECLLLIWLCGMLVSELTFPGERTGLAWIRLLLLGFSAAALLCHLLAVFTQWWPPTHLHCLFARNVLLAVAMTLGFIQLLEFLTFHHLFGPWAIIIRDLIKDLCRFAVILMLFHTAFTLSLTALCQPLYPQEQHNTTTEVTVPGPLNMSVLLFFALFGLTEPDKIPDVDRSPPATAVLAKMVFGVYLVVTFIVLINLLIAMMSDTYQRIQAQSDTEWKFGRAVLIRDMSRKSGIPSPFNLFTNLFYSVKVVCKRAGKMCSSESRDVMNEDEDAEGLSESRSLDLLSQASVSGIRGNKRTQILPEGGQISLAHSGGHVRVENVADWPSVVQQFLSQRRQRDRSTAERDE
# Chain of Mucolipin-3 (Q8TDD5 whole entry): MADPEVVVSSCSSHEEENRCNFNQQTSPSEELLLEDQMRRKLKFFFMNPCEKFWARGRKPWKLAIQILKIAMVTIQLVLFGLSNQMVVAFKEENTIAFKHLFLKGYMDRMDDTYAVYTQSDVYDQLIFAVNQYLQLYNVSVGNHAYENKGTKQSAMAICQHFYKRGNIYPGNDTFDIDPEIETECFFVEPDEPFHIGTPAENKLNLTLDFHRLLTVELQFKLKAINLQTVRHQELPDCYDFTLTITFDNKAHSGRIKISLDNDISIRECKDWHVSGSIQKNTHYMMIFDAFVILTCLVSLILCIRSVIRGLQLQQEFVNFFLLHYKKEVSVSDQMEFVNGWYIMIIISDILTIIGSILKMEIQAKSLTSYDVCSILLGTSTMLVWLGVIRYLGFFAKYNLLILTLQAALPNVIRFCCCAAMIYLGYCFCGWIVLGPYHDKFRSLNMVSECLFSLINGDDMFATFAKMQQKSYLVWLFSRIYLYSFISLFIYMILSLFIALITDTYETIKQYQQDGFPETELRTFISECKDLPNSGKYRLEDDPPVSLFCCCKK
# Chain of 14-3-3 protein gamma (P61981 whole entry): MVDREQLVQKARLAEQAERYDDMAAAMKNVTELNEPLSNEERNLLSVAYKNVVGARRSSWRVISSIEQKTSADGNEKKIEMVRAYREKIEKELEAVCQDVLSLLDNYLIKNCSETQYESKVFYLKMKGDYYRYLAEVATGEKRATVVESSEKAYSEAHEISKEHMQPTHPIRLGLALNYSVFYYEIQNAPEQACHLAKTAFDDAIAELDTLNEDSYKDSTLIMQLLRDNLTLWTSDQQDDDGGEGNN
# Chain of Protein-tyrosine kinase 2-beta (Q14289 whole entry): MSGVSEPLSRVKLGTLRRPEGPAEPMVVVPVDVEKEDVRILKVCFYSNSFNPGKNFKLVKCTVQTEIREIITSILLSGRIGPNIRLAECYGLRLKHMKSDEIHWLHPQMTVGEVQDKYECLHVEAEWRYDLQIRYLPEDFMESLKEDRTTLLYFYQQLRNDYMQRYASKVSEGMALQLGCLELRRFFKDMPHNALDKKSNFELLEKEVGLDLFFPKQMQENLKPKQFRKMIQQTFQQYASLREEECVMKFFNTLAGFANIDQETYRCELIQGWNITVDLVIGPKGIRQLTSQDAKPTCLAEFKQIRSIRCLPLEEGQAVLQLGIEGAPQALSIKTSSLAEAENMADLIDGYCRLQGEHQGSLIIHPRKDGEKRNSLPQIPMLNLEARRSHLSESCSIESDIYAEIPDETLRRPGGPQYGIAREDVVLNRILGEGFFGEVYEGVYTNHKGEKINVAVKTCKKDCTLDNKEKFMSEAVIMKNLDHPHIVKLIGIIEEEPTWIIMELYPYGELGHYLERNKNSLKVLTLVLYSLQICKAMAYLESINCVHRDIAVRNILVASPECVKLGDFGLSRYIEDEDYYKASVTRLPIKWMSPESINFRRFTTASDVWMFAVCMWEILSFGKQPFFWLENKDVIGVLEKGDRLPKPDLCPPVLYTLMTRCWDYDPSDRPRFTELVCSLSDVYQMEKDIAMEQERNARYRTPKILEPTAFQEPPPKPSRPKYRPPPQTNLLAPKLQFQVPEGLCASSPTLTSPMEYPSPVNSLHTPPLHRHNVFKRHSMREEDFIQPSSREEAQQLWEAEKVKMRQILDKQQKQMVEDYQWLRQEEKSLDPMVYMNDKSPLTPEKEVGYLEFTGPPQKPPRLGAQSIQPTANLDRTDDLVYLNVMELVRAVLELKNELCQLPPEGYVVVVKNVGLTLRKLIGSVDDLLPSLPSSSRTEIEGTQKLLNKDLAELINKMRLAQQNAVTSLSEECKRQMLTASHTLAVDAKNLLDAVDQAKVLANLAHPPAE
# Chain of Paired box protein Pax-8 (Q06710 whole entry): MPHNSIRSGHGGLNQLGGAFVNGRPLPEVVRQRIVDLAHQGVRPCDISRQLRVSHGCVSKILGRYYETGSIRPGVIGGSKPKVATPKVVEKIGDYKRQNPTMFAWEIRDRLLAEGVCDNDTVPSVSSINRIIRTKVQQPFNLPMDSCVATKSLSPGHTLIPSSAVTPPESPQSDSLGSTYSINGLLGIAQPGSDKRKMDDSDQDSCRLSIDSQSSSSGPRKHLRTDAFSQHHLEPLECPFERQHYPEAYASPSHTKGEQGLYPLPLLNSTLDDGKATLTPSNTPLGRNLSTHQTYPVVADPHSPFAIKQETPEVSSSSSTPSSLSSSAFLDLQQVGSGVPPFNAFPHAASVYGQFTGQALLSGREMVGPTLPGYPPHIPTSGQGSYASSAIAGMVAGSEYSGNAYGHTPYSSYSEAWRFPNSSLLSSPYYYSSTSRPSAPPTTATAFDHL
# Chain of Mothers against decapentaplegic homolog 3 (P84022 whole entry): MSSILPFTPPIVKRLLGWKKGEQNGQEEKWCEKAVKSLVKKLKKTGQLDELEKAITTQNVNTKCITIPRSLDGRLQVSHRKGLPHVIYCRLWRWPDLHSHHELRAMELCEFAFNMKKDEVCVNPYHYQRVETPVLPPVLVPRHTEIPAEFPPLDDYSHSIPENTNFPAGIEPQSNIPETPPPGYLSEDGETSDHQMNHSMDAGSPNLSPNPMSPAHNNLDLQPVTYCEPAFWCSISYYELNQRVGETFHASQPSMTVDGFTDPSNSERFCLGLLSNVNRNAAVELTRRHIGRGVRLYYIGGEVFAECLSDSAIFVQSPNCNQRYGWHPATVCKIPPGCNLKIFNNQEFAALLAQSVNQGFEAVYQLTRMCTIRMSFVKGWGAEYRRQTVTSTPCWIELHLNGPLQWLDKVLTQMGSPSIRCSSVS
# Chain of Bcl-2-like protein 10 (Q9HD36 whole entry): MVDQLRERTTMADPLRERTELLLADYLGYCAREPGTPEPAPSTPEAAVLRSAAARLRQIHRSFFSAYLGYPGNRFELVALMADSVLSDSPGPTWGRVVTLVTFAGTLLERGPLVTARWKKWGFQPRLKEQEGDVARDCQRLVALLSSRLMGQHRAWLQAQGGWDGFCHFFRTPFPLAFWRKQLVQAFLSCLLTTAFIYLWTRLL
smiles,measurement,setting,value
COc1ccc(N2CCN(C3=C(Cl)C(=O)N(c4ccc(Cl)c(Cl)c4)C3=O)CC2)cc1,IC50,Bcl-2-related protein A1 [1],1.25 µM (active)
same,IC50,[2],> 100 µM (not active)
same,IC50,Bcl-2-related protein A1 [3],6.79 µM (active)
Cc1cc(C(=O)Cn2cnc3c2c(=O)n(C)c(=O)n3C)c(C)n1Cc1ccccc1,EC50,[4],> 30 µM (not active)
CCCCC(=O)/C=C/n1c(=S)oc2ccccc21,EC50,HEK293 [5],> 59.6 µM (inactive)
same,IC50,[6],> 100 µM (active)
same,EC50,HEK293 [7],> 2.21 µM (active)
same,CC50,[8],19.8 µM (active)
CC(C)C(=O)N1CCN(c2ccc(NC(=O)c3ccc([N+](=O)[O-])o3)cc2Cl)CC1,CC50,HeLa,3.45 µM (active)
same,AC50,[9],0.954 µM (active)
same,AC50,[10],7.05 µM (active)
same,AC50,[11],8.27 µM (active)
same,AC50,Paired box protein Pax-8,3.25 µM (active)
same,AC50,[12],27.8 µM (active)
O=C(O)c1ccc([N+](=O)[O-])c2c1NC(c1ccccc1)C1CC=CC21 (configuration not stated),EC50,Bcl-2-like protein 10,3.92 µM (active)
COc1ccc(CNC2CCCc3ccccc32)cc1 (configuration not stated),IC50,[13],3.59 µM (active)
O=[N+]([O-])c1cc(/C=N\Nc2nccs2)ccc1O,IC50,[14],10.8 µM (active)
same,IC50,[15],3.15 µM (active)
same,IC50,[16],30.9 µM (not active)
Cc1ccc(-n2c(=O)[nH]cc(C(=O)Nc3ccc4c(c3)OCO4)c2=O)cc1C,EC50,[17],7.75 µM (active)
O=S(=O)(Nc1ccccc1N1CCCCC1)c1cccs1,EC50,Mucolipin-3,2.3 µM (active)
same,EC50,Ion channel NompC,> 29.9 µM (not active)
C=CCSc1nnc2c3cccc(C)c3nc-2[nH]1,EC50,[18],0.31 µM (active)
same,EC50,[19],0.311 µM (active)
same,EC50,[20],0.317 µM (active)
same,EC50,[21],< 0.1 µM (active)
Cc1ccc(/C=N/NC(=O)c2[nH]nc3c2CCCC3)cc1,CC50,Vero,0.24 µM (active)
same,IC50,[22],0.32 µM (active)
same,EC50,[23],0.711 µM (inconclusive)
same,EC50,BJ [24],0.37 µM (inconclusive)
same,EC50,BJ [25],< 0.104 µM (active)
same,EC50,BJ [26],0.31 µM (inconclusive)
same,EC50,BJ [27],0.382 µM (active)
CC1=CC(C#N)(C#N)C(C#N)(C#N)C(c2ccccc2)N1 (configuration not stated),EC50,[28],2.46 µM (active)
same,EC50,[29],3.14 µM (active)
same,IC50,14-3-3 protein gamma,3.15 µM (active)
CCCC1=NN2C(=N)/C(=C/c3c[nH]c4ccccc34)C(=O)N=C2S1,IC50,[30],64.6 µM (active)

# — ChEMBL document CHEMBL1201862, “PubChem BioAssay data set” (2004)
